Test [1] concerns NTG-induced skin hypersensitivity in mice. Put plainly: Mouse model of chronic migraine (repetitive NTG): hindpaw and facial von Frey thresholds, cheek acetone test. The format is in vivo. Here is the method:
Mouse model of chronic migraine and drug treatments: After measuring baseline nociceptive responses, mice received repetitive intraperitoneal (i.p.) injections of NTG (10 mg/kg in saline with 1% propylene glycol) or vehicle (saline with 1% propylene glycol in saline, 10 mL/kg) every 2 days for 4 or more times as described previously (Pradhan A A, et al. PAIN 2014; 155:269-74). Nocifensive behaviors were measured 2 days after each injection (before the next treatment). NTG (SDM27; Copperhead Chemical, Tamaqua, PA) was freshly diluted from the stock (10% in propylene glycol, aliquoted in airtight glass vials and stored at 4° C.) with saline for every injection. Recombinant mouse IL2 (carrier-free; Biolegend, San Diego, CA) was freshly diluted from the stock (1 mg/mL aliquots at […]) every day. Each mouse received daily i.p. injection of […] IL2 in […] saline. The control mice received daily i.p. injections of […] saline. In Treg depletion experiment, mice received 1 i.p. injection of antibodies against CD25 ([…], BP0012; BioXcell, West Lebanon, NH11) or control IgG (BP0088; BioXcell). The antibody binds to CD25 on Treg cell membrane and depletes Treg cells through Fcg receptor III-mediated antibody-dependent cellular cytotoxicity and antibody-dependent cellular phagocytosis (Setiady Y Y, et al, Eur J Immunol 2010; 40:780-6). Note that on the days that the mouse behaviors were tested, NTG, IL2 and/or antibodies were always injected after completing the behavioral tests.
(§1) Responses to mechanical stimuli on the hindpaw. Mice were habituated in individual clear plexiglass boxes (11×11×15 cm) for 1 to 2 hours. A series of calibrated von Frey filaments was used to apply mechanical stimuli to the plantar surface of the hindpaws. The up-down paradigm was used to determine the 50% withdrawal threshold. The thresholds for both hindpaws were averaged to yield a single value for each mouse.
Cheek acetone test. The acute nocifensive response to acetone-evoked evaporative cooling on mouse cheek was measured as previously described (Constandil L, et al. J Pain 2012; 13:579-89). The day before testing, both cheeks were shaved (6.5×12 mm) under brief anesthesia (2% isoflurane in 100% oxygen). On the test day, mice were habituated in individual plexiglass cylinders (11-cm diameter, 15-cm height) situated in front of 3-way mirrors for 1 to 2 hours. Acetone ([…]) was applied to the shaved cheeks and immediately returned mice to the cylinders. Time spent wiping the treated area was recorded by a video camera and quantified offline. For individual mice, acetone was applied alternatingly to both cheeks at 10-minute intervals, and the duration of behavior was averaged from 4 applications.
Withdrawal responses to facial mechanical stimuli. The hair on mouse forehead (above and between 2 eyes) was shaved the day before testing. On the test day, the experimenter gently held the mouse on the palm with minimal restraint and applied the calibrated von Frey filament perpendicularly to the shaved skin, causing the filament to bend for 5 seconds. A positive response was determined by the following criteria as previously described: mouse vigorously stroked its face with the forepaw, head withdrawal from the stimulus, or head shaking (Elliott M B et al., Headache 2012; 52:966-84). The up-down paradigm was used to determine the 50% withdrawal threshold. […]

Test [2] has as its system Treg cells and CD3+ T cells in dura, TG and DRG. As to the kind of experiment: Immunohistochemistry of CD3+ T cells and EGFP+ Treg cells in dura, TG, DRG and cervical/medullary dorsal horn. The format is in vivo, mouse. As to the method: Tissue preparation, immunohistochemistry, and image analysis. Mice were euthanized with i.p. injection of barbiturate (200 mg/kg) and were transcardially perfused with warm 0.1 M phosphate buffered saline (pH 7.2) followed by cold 4% formaldehyde in 0.1 M phosphate buffer (pH 7.2) for fixation. Trigeminal ganglia, lumbar L4 DRG, and the tissues containing the cervical/medullary dorsal horn (from obex to C3 cervical spinal cord) were collected and sectioned at […] in the transverse plane, collected on Superfrost Plus glass slides in sequence and stored at […]
The dura was carefully dissected from the skull using forceps and stained as whole mount. T cells were identified by the rat anti-CD3 antibody (clone 17A2, 1:200; eBioscience, San Diego, CA), and Treg cells were identified with the chicken anti-EGFP (1:1000; AVES Lab, Tigard, OR) antibody in tissues from DEREG mice. […] To quantify CD31 T cells and Treg cells on the dura, we took random, nonoverlapping images (10 per mouse) in areas adjacent to the middle meningeal artery (MMA). To quantify T cells and Treg cells in TG, DRG, and cervical/medullary dorsal horn, all cells on individual sections were counted, and the number was multiplied by 4 to obtain the total number of cells per ganglion in each mouse. […] Representative images were adjusted for contrast and brightness using the same parameter within individual experiments. No other manipulations were made to the images. Image analysis was performed with experimenters blinded to the experimental groups.

For test [3], the system named is nerve injury-induced punctate and dynamic allodynia. The note with it: cited from earlier work.
In test [4] the test system is NTG/NO donor- or mTBI-induced cutaneous allodynia in rodents. To be noted: cited from earlier work; for persistent cephalic mechanical hypersensitivity induced by repeated isosorbide dinitrate: Dallel R, et al., Cephalalgia 2018.
The test system of test [5] is sumatriptan-induced cutaneous hypersensitivity in mice. As to the kind of experiment: Mouse model of medication overuse headache (repeated sumatriptan). Type of test: in vivo. To be noted: daily sumatriptan 0.6 mg/kg i.p.; male and female C57BL/6J. As to the method: Mouse model of medication overuse headache. After measuring baseline nociceptive responses, mice received daily i.p. injections of sumatriptan succinate (0.6 mg/kg; Fresenius Kabi, Lake Zurich, IL44). Daily ld-IL2 or saline were administered after mice received 2 sumatriptan injections. Facial and hindpaw mechanical thresholds were measured every 2 days. Note that on the days that the mouse behaviors were tested, sumatriptan and/or IL2 were always injected after completing the behavioral tests.
as §1
Withdrawal responses to facial mechanical stimuli. The hair on mouse forehead (above and between 2 eyes) was shaved the day before testing. On the test day, the experimenter gently held the mouse on the palm with minimal restraint and applied the calibrated von Frey filament perpendicularly to the shaved skin, causing the filament to bend for 5 seconds. A positive response was determined by the following criteria as previously described: mouse vigorously stroked its face with the forepaw, head withdrawal from the stimulus, or head shaking (Elliott M B et al., Headache 2012; 52:966-84). The up-down paradigm was used to determine the 50% withdrawal threshold.

Take `O=[N+]([O-])OCC(CO[N+](=O)[O-])O[N+](=O)[O-]` [NTG, nitroglycerin, reference compound]: the “mechanical threshold at the periorbital region” value in test [1] (2 days after the first NTG injection, female Swiss Webster) was “substantially reduced”. Further, the “50% withdrawal thresholds to von Frey filaments on the hindpaws” value in test [1] (NTG 10 mg/kg i.p. every 2 days for 5 times, male and female C57BL/6J) is “induced a progressive and sustained mechanical hypersensitivity”. Also, in test [1] (NTG 10 mg/kg i.p., naive C57BL/6J, day 1), the “facial mechanical threshold 3 hours after systemic NTG” value is reported as “significantly reduced”. Further, the “time facial mechanical hypersensitivity was sustained by repeated NTG injections” value in test [1] (male C57BL/6J) is listed as “at least 4 weeks”. The “duration of acetone-induced cheek wiping” value in test [1] (repeated NTG, female C57BL/6J) is “persistent increase”; in test [1] (repetitive NTG, female Swiss Webster) it was “gradual increase”. For the same molecule, in test [2] (repeated NTG), the “increase in total CD3+ cells in TG” value was 2 fold. In addition, in test [2] (repeated NTG administration), the “proportion of Treg cells among total T cells in TG” value was “significantly reduced”. Also, the “density of CD3+ T cells in the dura surrounding the MMA or in L4 DRG” value in test [2] (repeated NTG, C57BL/6J) is on record as “not altered”. For the same molecule, in test [2] (repeated NTG, female C57BL/6J, n=6), the “CD3+ cells per TG” value was found to be 4135±562 cells per TG. Besides, the “reduction of the ratio of Treg cells among CD3+ T cells in mouse TG” value in test [2] (repeated injections of NTG) is recorded as 50%. The “total number of EGFP+ Treg cells in TG and DRG” value in test [2] (repetitive NTG injections, female DEREG mice) was “neither was significantly altered”.

On to `CN1CC[C@]23c4c5ccc(O)c4O[C@H]2[C@@H](O)C=C[C@H]3[C@H]1C5` [morphine], for which the “nerve injury-induced punctate allodynia, early stage” value in test [3] (<2 weeks post-injury) is on record as “attenuates”. Also, the “nerve injury-induced dynamic allodynia” value in test [3] (all stages) is reported as “does not respond”. Further, the “nerve injury-induced punctate allodynia, late stage” value in test [3] (late stage) is reported as “not late stage”.

In the case of `NCCCC[C@H](NC(=O)[C@@H](Cc1cc(Br)c(O)c(Br)c1)NC(=O)N1CCC(N2Cc3ccccc3NC2=O)CC1)C(=O)N1CCN(c2ccncc2)CC1` [olcegepant], the “persistent cephalic mechanical hypersensitivity induced by repeated isosorbide dinitrate” value in test [4] was “neither sumatriptan nor CGRP receptor antagonist olcegepant prevents”.

In the case of `CC(C)NCC(O)COc1cccc2ccccc12` (stereo not drawn) [propranolol], the “persistent facial mechanical hypersensitivity from repeated enhancing of NO signaling” value in test [4] (previous studies) is listed as “can be blocked”.

For the molecule `CNS(=O)(=O)Cc1ccc2[nH]cc(CCN(C)C)c2c1` [sumatriptan, sumatriptan succinate], the “facial and hindpaw mechanical sensitivity” value in test [5] is “persistent facial and hindpaw mechanical hypersensitivity”. In test [4], the “persistent cephalic mechanical hypersensitivity induced by repeated isosorbide dinitrate” value was “neither sumatriptan nor CGRP receptor antagonist olcegepant prevents”. In addition, the “NTG-induced acute cutaneous allodynia and central sensitization” value in test [4] (rodents) is on record as “can be blocked”.

Consider `CC1(C)O[C@@H]2[C@@H](CO[C@@]3(COS(N)(=O)=O)OC(C)(C)O[C@@H]23)O1` [topiramate], for which the “NTG-enhanced behavioral responses to acetone-induced cooling of facial skin” value in test [4] (daily treatment, mice) is “can be blocked”.

Source of the values: patent US12702697B2, “Compositions and methods for treatment of headache disorders and neuropathic pain” (Washington University, priority 2019, dated 2026).
